Type in all cases: cell-based, human
Test [1] deals with isolated whole sweat glands. Kind of test: Time-lapse imaging of whole sweat glands in Krebs-Ringer solution: outer and inner diameter index values of sweat gland tubule after stimulant. The conditions noted are these: pilocarpine 10 mM added after 10 minutes. As to the method: Whole sweat glands were observed by time-lapse imaging in the same manner as in Example 1 except that Krebs-Ringer solution (composition: 125 mM sodium chloride, 5 mM potassium chloride, 1 mM calcium chloride, 1. 2 mM magnesium chloride, 25 mM sodium bicarbonate, 1.2 mM dihydrogen phosphate sodium, 5 mM glucose and 10 mg/100 mL of fatty acid-free bovine serum albumin, pH 7.48) was used in place of PBS. After 10 minutes passed from the initiation of the observation, pilocarpine which was a sweat gland contraction-inducing reagent (stimulant) was added to the whole sweat glands so as to have a concentration of 10 mM, and thereafter the observation of the whole sweat glands using the time-lapse imaging was continued. Next, changes of each outer diameter index values at the determined sites (A) to (C) shown in FIG. 17 with the passage of time were obtained by using the image analysis software (manufactured by BITPLANE, trade name: Imaris). The outer diameter index value was obtained by stacking data in the Z direction and performing calculation in which the image analysis software was used in the “Surface” mode under the following setting conditions: In FIG. 17, the determined site (A) is a portion enveloped by myoepithelial cells. The determined site (B) and the determined site (C) are portions which are not enveloped by myoepithelial cells, and which are flow pathways for sweat. Further, the scale bar in FIG. 17 means 50 μm. After cancelling the stacking of the data in the Z direction, changes of an inner diameter index value at the determined sites (A) to (C) shown in FIG. 18 were calculated with one kind of data in the Z direction. The internal diameter index value was obtained by preparing the surface model, then extracting the components included in the surface model with Mask tool included in an image analysis software and performing calculation with the image analysis software under the following setting conditions: […]

In test [2] the test system is isolated whole sweat glands. Kind of test: Time-lapse imaging of stained isolated whole sweat glands held with collagen in PBS: moving distance of cells after stimulant. The settings on record: pilocarpine 10 mM added 60 seconds after initiation of observation, when 150 to 300 seconds passed from initiation, FIG. 5. As to the method:
As skin tissues, skin tissues which were refrigerated immediately after removal from living donors and stored at 4° C. for 15 hours were used. The skin tissues were immersed in a phosphate-buffered saline containing 10 μM Neutral Red, to incorporate Neutral Red into sweat glands included in the skin tissues. Next, the dermis of each of the skin tissues was finely cut to obtain dermal segments. Whole sweat glands were collected from the dermal segments by using tweezers under an optical microscope. […]
After 5 minutes passed from the addition of the buffer, the observation with the time-lapse imaging of the whole sweat glands on the glass bottom dish was started by using a confocal laser scanning microscope for biological use (inverted microscope (manufactured by Olympus Corporation, trade name: IX-83) equipped with FV 1200 manufactured by Olympus Corporation)). At that time, the whole sweat glands were visualized by detecting fluorescence derived from the nuclear staining reagent bound to the nucleus and fluorescence derived from the cytoskeleton-staining reagent bound to the cytoskeleton. […]
wherein n is the same as mentioned above. […] The actual moving distance (μm) of the cell was calculated by multiplying the movement value by the size per coordinate 1.

The subject of test [3] is isolated whole sweat glands. Kind of test: Evaluation of test substance for perspiration-controlling action: moving distance of cells in whole sweat glands stimulated with pilocarpine. The settings on record: atropine pre-incubated 30 minutes, pilocarpine 10 mM after 10 minutes. How it is done:
Whole sweat glands were observed by time-lapse imaging in the same manner as in Example 1 except that Krebs-Ringer solution was used in place of PBS, that atropine as a test substance was added onto the whole sweat glands before observing the whole sweat glands by using time-lapse imaging and thereafter the whole sweat glands were incubated for 30 minutes, and that pilocarpine was added onto the whole sweat glands so as to have a concentration of 10 mM after 10 minutes passed from the initiation of the observation (Experiment No. 1). Next, cells E, F, G, H and I were selected from the image of FIG. 21, and a moving distance of each cell was examined in the same manner as in Example 1. Next, the average value of moving distances of cells was obtained by using the moving distance of each cell. The scale bar in FIG. 21 means 50 μm.
In addition, whole sweat glands were observed by time-lapse imaging in the same manner as in Example 1 except that Krebs-Ringer's solution was used in place of PBS and that pilocarpine was added onto the whole sweat glands so as to have a concentration of 10 mM after 10 minutes passed from the initiation of the observation (Experiment No. 2). Next, cells J, K, L, M and N were selected from the image of FIG. 22, and a moving distance of each cell was examined in the same manner as in Example 1. […]

Setting [4] is: site not enveloped by myoepithelial cells, FIG. 19.
Setting [5] is: site not enveloped by myoepithelial cells, FIG. 20.

Results on 2 compounds are retold here after patent publication US20190049429A1, “METHOD FOR OBSERVING DYNAMICS OF SWEAT GLANDS” (MANDOM CORPORATION, priority 2016, published 2019).

SMILES strings stand for the structures.

Regarding `CC[C@@H]1C(=O)OC[C@@H]1Cc1cncn1C` [pilocarpine], in test [1] (site enveloped by myoepithelial cells, FIG. 19), the “outer diameter index value at the determined site (A)” value was “decreases after stimulating with the stimulant and then increases”. Besides, the “inner diameter index value at the determined site (A)” value in test [1] (site enveloped by myoepithelial cells, FIG. 20) is “greatly decreases after stimulating with the stimulant and then increases”. Also, in test [1] (setting [4]), the “outer diameter index value at the determined site (B)” value is recorded as “increases after stimulating with the stimulant” and the “outer diameter index value at the determined site (C)” value was “hardly changes after stimulating with the stimulant”. In test [1] (setting [5]), the “diameter index value at the determined site (B), results of FIG. 20” value is given as “hardly changes immediately after stimulating with the stimulant, but the outer diameter index value increases when passing a certain time” and the “diameter index value at the determined site (C), results of FIG. 20” value is recorded as “hardly changes immediately after stimulating with the stimulant, but the outer diameter index value increases when passing a certain time”. For the same compound, the “moving distances of the cell A, the cell B, the cell C, and the cell D” value in test [2] is on record as “become larger”.

In the case of `CN1[C@@H]2CC[C@H]1C[C@@H](OC(=O)C(CO)c1ccccc1)C2` (stereo partly drawn) [atropine], in test [3], the “perspiration-controlling action judged from sweat gland dynamics” value is reported as “has an antiperspirant action”. Also, in test [3] (Krebs-Ringer solution, FIG. 23 vs FIG. 24), the “changes of a moving distance of each cell included in the sweat glands with the passage of time, compared with sweat glands not contacted with atropine” value is recorded as “smaller”.
